Experimental data reported in patent publication US8815935B2, “Inhibitors of protein prenyltransferases” (The Regents of the University of California, priority 2008, dated 2014).
Read-outs that look alike come from different tables or passages of the source.

What was measured:
GGTase-I = target: T1, GGTase-I (Rattus norvegicus, UniProt P53610+Q04631); test: In vitro GGTase-I enzyme assay (IC50, kinetics); format: biochemical
T1 construct: purchased JENA BIOSCIENCE
Experimental: The GGTase-I assay was carried out using RhoA as a substrate protein, GGTase-I (JENA Bioscience) and [3H]geranylgeranyl pyrophosphate. Incubation was for 30 min at 37° C. GGTase-II (or RabGGTase) assay was carried out using YPTI as a substrate protein, GGTase-II (Calbiochem, San Diego, Calif.) plus REP1 (Calbiochem) and [3H]geranylgeranyl pyrophosphate. Incubation was for 30 min at 37° C. FIGS. 20D-20F show the three dimensional structure of GGTase I (D), FTsse (E) and GGTase II (F) which can be obtained from X-ray diffraction studies of protein crystals.
GGTase-I and FTase activities were determined by following the incorporation of radiolabeled isoprenoid [^3H]-geranylgeranyl or [^3H]-farnesyl into substrate proteins. FTase or GGTase-I (50 nM) were used to initiate reactions containing 0.4 μM of [^3H]-FPP or 0.5 μM of [^3H]-GGPP and 2 μM of MBP-tagged substrates (K-Ras4B for FTase; RhoA for GGTase-I) in 20 μl of buffer {50 mM Tris-HCl (pH 7.5), 10 mM MgCl2, […] and 5 mM DTT}. Inhibitors were added at the indicated concentrations. The final DMSO concentration was 2.5% for all samples.
Reactions were carried out for 10 min at 30° C. The reaction mixture was spotted onto a filter paper, treated with 10% trichloroacetic acid (TCA) followed by ethanol and acetone washing. The filter was counted using a scintillation counter. Kinetic assays in which the GGPP concentration was varied employed fixed concentrations of GGTase-I and RhoA, and reactions were carried out for 5 min. Similarly, fixed concentrations of GGTase-I and GGPP were used when the amount of RhoA was varied.

Jurkat cells = test: Jurkat cell growth inhibition; format: cell-based, human
Experimental: In Table 4 in cell GI50 values for the growth inhibition of Jurkat cells are reported. The GI50 value is the concentration of a test compound needed to produce 50% growth inhibition in the cell type listed. In Table 4 the isolated yield of each synthetic step for the synthesis of corresponding compounds are also reported.
Panc-1 cells (Pancreatic cancer cell line) and Jurkat cells (T-cell leukemia) were treated with 12.5 μM of P5-H6 or 12.5 μM of mP5-H6a for 72 hours. The cell number was counted as described in Example 5.
(§1) Cell viability was determined by Cell Counting Kit-8 (CCK-8, Dojindo, Kumamoto, Japan) as described previously (31). Cell viability was calculated relative to the DMSO control. Cell cycle profile was analyzed by flow cytometry as described previously (32).

K562 cells = test: K562 cell growth inhibition; format: cell-based, human
Experimental: K562 cells are a cell line of human erythroleukemia cells. The K562 cells were treated with P3-E5, P5-H6 or GGTI-298 (a known GGTI compound illustrated in FIG. 27) for 72 hours and then cell number was counted using cell counting kit-8 (Dojindo, Gaithersburg, Md.). Cell viability relative to the DMSO control and the known GGTI compound is plotted in FIG. 23.
as §1

MCF7 = MCF7 cell growth inhibition; format: cell-based, human; conditions: Homo sapiens, MCF7, Tables 8-15; no unit printed there
Experimental: (§2) In FIG. 9-24 in vitro IC50 values for the GGTase I activity are reported. In Tables 7-15 in cell GI50 values for the growth inhibition of a variety of cancer cell lines (e.g., Jurkat, K562, MDA-MB-231, BT474, MCF7, MiaPaCa2, Aspc-1, Panc-1, Capan-2, CFpac-1, and MCF10a) are reported.
as §1

MCF10a = MCF10a cell growth inhibition; format: cell-based; conditions: Tables 8-15, no unit printed there
Text: as §2

[1] = Tables 3, 5, 7, read-out: In vitro (enzyme assay) IC50, GGTase I
[2] = Homo sapiens, Jurkat, Tables 4, 6, 7, read-out: Jurkat cell GI50
[3] = Tables 8-15, no unit printed there (Table 7 head: μM unless otherwise specified), read-out: In vitro (GGTase I IC50)
[4] = Homo sapiens, Jurkat, Tables 8-15, no unit printed there, read-out: Jurkat GI50
[5] = Homo sapiens, K562, Tables 8-15, no unit printed there
[6] = Tables 4, 6, 7, read-out: Jurkat cell GI50
[7] = Tables 8-15, no unit printed there, read-out: Jurkat GI50
[8] = Tables 8-15, no unit printed there

SMILES | IC50 (GGTase-I; [1]) | GI50 (Jurkat cells; [2]) | IC50 (GGTase-I; [3]) | GI50 (Jurkat cells; [4]) | GI50 (K562 cells; [5]) | also measured
Cc1ccccc1S(=O)(=O)N1[C@@H](c2ccc(Cl)cc2)C(C(N)=O)=C[C@H]1C(C)(C)C | 1.6 µM | 11 µM |  |  |  | GI50 (K562 cells; Homo sapiens, K562, Table 7): 4.8 µM
Cc1ccccc1S(=O)(=O)N1[C@@H](c2ccc(Cl)cc2)C(CO)=C[C@H]1C(C)(C)C | 2.2 µM | 5.8 µM |  |  |  | GI50 (K562 cells; Homo sapiens, K562, Table 7): 6 µM
CC(C)(C)[C@@H]1C=C(C(=O)O)[C@H](c2ccc(Cl)cc2)N1S(=O)(=O)c1c(Cl)cccc1Cl |  |  | 4.4 µM | 2.76 µM | 8.26 µM | 
CC(C)(C)[C@@H]1C=C(C(=O)O)[C@H](c2ccc(Cl)cc2)N1S(=O)(=O)C(C)(C)C |  |  | 28.9 µM | 5.36 µM | > 20 µM | 
Cc1ccccc1S(=O)(=O)N1[C@@H](c2ccc(Cl)cc2)C(COCC(=O)N[C@@H](Cc2ccccc2)C(=O)O)=C[C@H]1C(C)(C)C |  |  | 0.1 µM | 12 µM | 17 µM | 
Cc1ccccc1S(=O)(=O)N1[C@@H](c2ccc(Cl)cc2)C(COCC(=O)N[C@@H](Cc2ccccc2)C(N)=O)=C[C@H]1C(C)(C)C |  |  | 0.7 µM | 1.3 µM | 5 µM | 
Cc1ccccc1S(=O)(=O)N1C(c2cccc(Cl)c2)C(CO)=CC[C@H]1c1ccc(Cl)cc1 (stereo partly shown) |  |  | > 100 µM | 7.5 µM | 5.8 µM | 
Cc1ccccc1S(=O)(=O)N1C(c2cccc(Cl)c2)C(C(=O)N[C@@H](CC(C)C)C(N)=O)=CC[C@H]1c1ccc(Cl)cc1 (stereo partly shown) |  |  |  | 6.1 µM | 6.15 µM | GI50 (MCF7): 10.9 µM; GI50 (MCF10a; Homo sapiens, MCF-10A): > 20 µM
CC(C)C[C@H](NC(=O)C1=CC[C@@H](c2cccc(Br)c2)N(S(=O)(=O)c2ccc(Cl)cc2)C1c1cccc(Cl)c1)C(N)=O (stereo partly shown) |  |  |  | 3.15 µM | 7.06 µM | GI50 (MCF7): 3.43 µM; GI50 (MCF10a; Homo sapiens, MCF-10A): 14.2 µM
COC(=O)[C@H](Cc1ccccc1)NC(=O)C1=C[C@@H](C(C)(C)C)N(S(=O)(=O)c2ccccc2C)[C@H]1c1ccc(Cl)cc1 [P61-A04] | > 50 µM | 19 µM | > 50 µM | 19 µM | 14 µM | 
CC(C)C[C@H](NC(=O)C1=CC[C@@H](c2cccc(Cl)c2)N(S(=O)(=O)c2ccc(Br)cc2)C1c1cccc(Br)c1)C(N)=O (stereo partly shown) [P61-C09] | > 50 µM |  | > 50 µM |  |  | GI50 (Jurkat cells; [6]): 6.38 µM; GI50 (Jurkat cells; Tables 8-15, no unit printed there, listed as P61C9, read-out: Jurkat GI50): 6.38 µM; GI50 (K562 cells; Tables 8-15, no unit printed there, listed as P61C9): 12.9 µM
CC(C)C[C@H](NC(=O)C1=CC[C@@H](c2cccc(Cl)c2)N(S(=O)(=O)c2ccc(Br)cc2)C1c1cccc(Br)c1)C(N)=O (stereo partly shown) [P61-C10] |  |  |  |  |  | GI50 (Jurkat cells; [6]): 2.22 µM; GI50 (Jurkat cells; [7]): 2.22 µM; GI50 (K562 cells; [8]): 4.37 µM
CC(C)C[C@H](NC(=O)C1=CC[C@@H](c2cccc(Br)c2)N(S(=O)(=O)c2ccc(F)cc2)C1c1cccc(Cl)c1)C(N)=O (stereo partly shown) [P61-C11] | 32.9 µM | 1.76 µM | 32.9 µM | 1.76 µM | 10.2 µM | 
NC(=O)[C@H](Cc1ccccc1)NC(=O)C1=CC[C@@H](c2cccc(Cl)c2)N(S(=O)(=O)c2ccc(Cl)cc2)C1c1cccc(Cl)c1 (stereo partly shown) [P61-D02] |  | 1.96 µM |  | 1.96 µM | 4.33 µM | IC50 (GGTase-I; Tables 5, 14, read-out: In vitro (enzyme assay) IC50, GGTase I): 0.6 µM
CC(C)C[C@H](NC(=O)C1=CC[C@@H](c2cccc(Br)c2)N(S(=O)(=O)c2ccc(F)cc2)[C@H]1c1cccc(Cl)c1)C(N)=O [P61-D03] | 6.9 µM | 0.32 µM | 6.9 µM | 0.32 µM | 1.7 µM | 
NC(=O)[C@H](Cc1ccccc1)NC(=O)C1=CC[C@@H](c2cccc(Br)c2)N(S(=O)(=O)c2ccc(Cl)cc2)C1c1cccc(Cl)c1 (stereo partly shown) [P61-D04] | 1.3 µM | 4.86 µM | 1.3 µM | 4.86 µM | 7.69 µM | 
NC(=O)[C@H](Cc1ccccc1)NC(=O)C1=CC[C@@H](c2cccc(Br)c2)N(S(=O)(=O)c2ccc(Cl)cc2)C1c1cccc(Cl)c1 (stereo partly shown) [P61-D05] | > 20 µM |  | > 20 µM |  |  | GI50 (Jurkat cells; [6]): 3.57 µM; GI50 (Jurkat cells; Tables 8-15, no unit printed there, listed as P61D5, read-out: Jurkat GI50): 3.57 µM; GI50 (K562 cells; Tables 8-15, no unit printed there, listed as P61D5): 10.3 µM
CC(C)(C)[C@@H]1C=C(C(=O)N[C@@H](Cc2ccccc2)C(N)=O)[C@H](c2ccc(Cl)c(Cl)c2)N1S(=O)(=O)c1c(Cl)cccc1Cl [P61-D09] | > 50 µM | 4.91 µM | > 50 µM | 4.91 µM | 3.63 µM | 
CC(C)(C)[C@@H]1C=C(C(=O)N[C@@H](Cc2ccccc2)C(N)=O)[C@H](c2ccc(Cl)c(Cl)c2)N1S(=O)(=O)c1c(Cl)cccc1Cl [P61-D10] |  |  |  |  |  | GI50 (Jurkat cells; [6]): 5.28 µM; GI50 (Jurkat cells; [7]): 5.28 µM; GI50 (K562 cells; [8]): 3.67 µM
CC(C)(C)[C@@H]1C=C(C(=O)N[C@@H](Cc2ccccc2)C(N)=O)[C@H](c2ccc(Cl)c(Cl)c2)N1S(=O)(=O)C(C)(C)C [P61-D11] | > 50 µM | 5.91 µM | > 50 µM | 5.91 µM | 5.9 µM | 
CC(C)(C)[C@@H]1C=C(C(=O)N[C@@H](Cc2ccccc2)C(N)=O)[C@H](c2ccc(Cl)c(Cl)c2)N1S(=O)(=O)C(C)(C)C [P61-E02] | 2.7 µM |  | 2.7 µM |  |  | GI50 (Jurkat cells; [6]): 4.57 µM; GI50 (Jurkat cells; Tables 8-15, no unit printed there, listed as P61E2, read-out: Jurkat GI50): 4.57 µM; GI50 (K562 cells; Tables 8-15, no unit printed there, listed as P61E2): 4.22 µM
COC(=O)[C@H](Cc1ccccc1)NC(=O)C1=C[C@@H](C(C)(C)C)N(S(=O)(=O)c2ccccc2C)[C@H]1c1ccc(Cl)cc1 [P61A5] |  |  |  |  |  | GI50 (Jurkat cells; [7]): 10.5 µM; GI50 (K562 cells; [8]): 17 µM
Cc1ccccc1S(=O)(=O)N1[C@@H](c2ccc(Cl)cc2)C(C(=O)N[C@@H](Cc2ccccc2)C(=O)O)=C[C@H]1C(C)(C)C [drawing 152] |  |  | 1.4 µM | 13 µM | 20 µM | 
Cc1ccccc1S(=O)(=O)N1C(c2cccc(Cl)c2)C(C(=O)N[C@@H](CC(C)C)C(N)=O)=CC[C@H]1c1ccc(Cl)cc1 (stereo partly shown) [drawing 214] |  |  |  |  |  | GI50 (Jurkat cells; [7]): 6.1 µM; GI50 (MCF10a): > 20 µM
